Laboratory results published in PMC6008299, “Impact of race on dose selection of molecular-targeted agents in early-phase oncology trials” (British Journal of Cancer, 2018).

Legend:
[1] = system: patients with advanced, refractory solid tumours; experiment: Phase I dose-escalation study J102 (Japan): safety, DLT, MTD; format: in vivo
Source text: Studies were approved by the Institutional Review Board at the participating institutions and regulatory authorities. Written informed consent in English and Japanese was obtained from all patients prior to enrollment.
Secondary and exploratory objectives were to evaluate PK, tumour response, and PD effects. Treatment-emergent adverse events (TEAE) were graded using the Common Terminology Criteria for Adverse Events version 4.0. A dose-limiting toxicity (DLT) was defined as a grade ≥3 clinically significant toxicity, with the exceptions of grade ≥4 anaemia and prolonged grade 3 neutropenia. Both studies were open-label, phase I dose-escalation studies. In Japan, the study was conducted at a single centre, while the US study was conducted at three sites. […] In the US, an accelerated titration design was used at low doses followed by a mCRM with EWOC. Briefly, the dose was escalated based on safety data in a single patient until a grade 2 or higher toxicity was observed during cycle 1 or the DLT period (days 1–28). […] Prophylactic granulocyte colony-stimulating factor and antiemetics were not permitted during cycle 1.

glucose = experiment: Pharmacodynamics: glucose after dosing; format: in vivo, human; settings: decreased toward baseline at 24 h
Protocol: (§1) In both studies, the PK profile of DS-7423 was characterised during cycle 1 on days 1 and 8. For PD analysis, glucose, C-peptide, and Akt phosphorylation were measured in platelet-rich plasma collected at predose, 1, 2, 4, 6, and 24 h after dosing on days 1 and 15. Tumour assessment was performed every two cycles using Response Evaluation Criteria in Solid Tumours (RECIST) version 1.1 in both studies. 18F-Fluoro-2-deoxy-D-glucose positron emission tomography ([18F]-FDG) was performed as an exploratory endpoint at baseline and on day 4.[10]

[2] = Pharmacokinetics, both studies; format: in vivo, human
Source text: In both studies, the PK profile of DS-7423 was characterised during cycle 1 on days 1 and 8. […] The data cut-off for the primary analysis occurred after all patients had either discontinued the study or completed 6 months of study drug treatment. Descriptive statistics were provided for selected demographic, safety, PK, and PD data by dose and time as appropriate. Descriptive statistics on continuous data included means, medians, standard deviations, and ranges, while categorical data were summarised using frequency counts and percentages. No inferential analysis to compare dose levels was performed due to limited sample sizes. The WinNonlin software was used for PK analysis.

[3] = system: CYP2C8, CYP3A4, and CYP3A5; design: method as in printed; settings: stated in discussion, ref not given; cited from earlier work
advanced solid tumours = experiment: Tumour assessment RECIST 1.1, both studies; format: in vivo, human; settings: either study
Protocol: as §1

Akt phosphorylation = experiment: Pharmacodynamics: Akt phosphorylation in platelet-rich plasma; format: in vivo, human; settings: pre-treatment vs post-treatment, 32 patients
Protocol: as §1

[4] = 96 mg, Japanese cohort (56–96 mg group, n = 6)
[5] = 4–32 mg Japanese cohort (n = 12)
[6] = 56–96 mg Japanese cohort (n = 6)

CC(=O)N1CCN(c2nc3c(N4CCOCC4)nc(-c4cnc(N)nc4)nc3n2CC(F)(F)F)C[C@H]1C [DS-7423]
Hyperglycaemia G3, n patients ([1]; 56 mg, Japanese cohort (56–96 mg group, n = 6)): 1 | Diarrhoea G3, n patients [1, 4]: 1 | Hyperglycaemia G3, n patients [1, 4]: 1 | AST increased (TEAE), n patients ([1]; 160 mg Japanese cohort (n = 3)): 0 | Abdominal pain (TEAE), n patients ([1]; 160 mg Japanese cohort (n = 3)): 1 | Back pain (TEAE), n patients ([1]; 160 mg Japanese cohort (n = 3)): 0 | Blood creatinine increased (TEAE), n patients ([1]; 160 mg Japanese cohort (n = 3)): 0 | Constipation (TEAE), n patients ([1]; 160 mg Japanese cohort (n = 3)): 1 | Cough (TEAE), n patients ([1]; 160 mg Japanese cohort (n = 3)): 2 | Decreased appetite (TEAE), n patients ([1]; 160 mg Japanese cohort (n = 3)): 3 | Decreased appetite G3, n patients ([1]; 160 mg Japanese cohort (n = 3)): 1 | Dehydration (TEAE), n patients ([1]; 160 mg Japanese cohort (n = 3)): 0 | Diarrhoea (TEAE), n patients ([1]; 160 mg Japanese cohort (n = 3)): 2 | Diarrhoea G3, n patients ([1]; 160 mg Japanese cohort (n = 3)): 1 | Dry mouth (TEAE), n patients ([1]; 160 mg Japanese cohort (n = 3)): 0 | Dysgeusia (TEAE), n patients ([1]; 160 mg Japanese cohort (n = 3)): 2 | Dyspnea (TEAE), n patients ([1]; 160 mg Japanese cohort (n = 3)): 1 | Edema (TEAE), n patients ([1]; 160 mg Japanese cohort (n = 3)): 1 | Fatigue (TEAE), n patients ([1]; 160 mg Japanese cohort (n = 3)): 1 | Hyperglycaemia (TEAE), n patients ([1]; 160 mg Japanese cohort (n = 3)): 1 (1 G3) | Hyperglycaemia G3, n patients ([1]; 160 mg Japanese cohort (n = 3)): 1 (1 G3) | Lung infection/ pneumonia (TEAE), n patients ([1]; 160 mg Japanese cohort (n = 3)): 0 | Nausea (TEAE), n patients ([1]; 160 mg Japanese cohort (n = 3)): 3 | Pyrexia (TEAE), n patients ([1]; 160 mg Japanese cohort (n = 3)): 1 | Rash (TEAE), n patients ([1]; 160 mg Japanese cohort (n = 3)): 2 | Stomatitis (TEAE), n patients ([1]; 160 mg Japanese cohort (n = 3)): 2 | Vomiting (TEAE), n patients ([1]; 160 mg Japanese cohort (n = 3)): 2 | AST increased (TEAE), n patients ([1]; 240 mg Japanese cohort (n = 6)): 0 | Abdominal pain (TEAE), n patients ([1]; 240 mg Japanese cohort (n = 6)): 1 | Back pain (TEAE), n patients ([1]; 240 mg Japanese cohort (n = 6)): 1 | Blood creatinine increased (TEAE), n patients ([1]; 240 mg Japanese cohort (n = 6)): 0 | Constipation (TEAE), n patients ([1]; 240 mg Japanese cohort (n = 6)): 1 | Cough (TEAE), n patients ([1]; 240 mg Japanese cohort (n = 6)): 1 | Decreased appetite (TEAE), n patients ([1]; 240 mg Japanese cohort (n = 6)): 4 | Dehydration (TEAE), n patients ([1]; 240 mg Japanese cohort (n = 6)): 0 | Diarrhoea (TEAE), n patients ([1]; 240 mg Japanese cohort (n = 6)): 5 | Dry mouth (TEAE), n patients ([1]; 240 mg Japanese cohort (n = 6)): 1 | Dysgeusia (TEAE), n patients ([1]; 240 mg Japanese cohort (n = 6)): 3 | Dyspnea (TEAE), n patients ([1]; 240 mg Japanese cohort (n = 6)): 0 | Edema (TEAE), n patients ([1]; 240 mg Japanese cohort (n = 6)): 3 | Fatigue (TEAE), n patients ([1]; 240 mg Japanese cohort (n = 6)): 2 | Hyperglycaemia (TEAE), n patients ([1]; 240 mg Japanese cohort (n = 6)): 1 (1 G4) | Hyperglycaemia G4, n patients ([1]; 240 mg Japanese cohort (n = 6)): 1 (1 G4) | Lung infection/ pneumonia (TEAE), n patients ([1]; 240 mg Japanese cohort (n = 6)): 1 (1 G3) | Lung infection/ pneumonia G3, n patients ([1]; 240 mg Japanese cohort (n = 6)): 1 (1 G3) | Nausea (TEAE), n patients ([1]; 240 mg Japanese cohort (n = 6)): 6 | Pyrexia (TEAE), n patients ([1]; 240 mg Japanese cohort (n = 6)): 2 | Rash (TEAE), n patients ([1]; 240 mg Japanese cohort (n = 6)): 5 | Stomatitis (TEAE), n patients ([1]; 240 mg Japanese cohort (n = 6)): 6 | Vomiting (TEAE), n patients ([1]; 240 mg Japanese cohort (n = 6)): 3 | AST increased (TEAE), n patients [1, 5]: 0 | Abdominal pain (TEAE), n patients [1, 5]: 1 | Back pain (TEAE), n patients [1, 5]: 1 | Blood creatinine increased (TEAE), n patients [1, 5]: 1 | Constipation (TEAE), n patients [1, 5]: 3 | Cough (TEAE), n patients [1, 5]: 1 | Decreased appetite (TEAE), n patients [1, 5]: 7 | Dehydration (TEAE), n patients [1, 5]: 0 | Diarrhoea (TEAE), n patients [1, 5]: 6 | Dry mouth (TEAE), n patients [1, 5]: 0 | Dysgeusia (TEAE), n patients [1, 5]: 3 | Dyspnea (TEAE), n patients [1, 5]: 2 | Edema (TEAE), n patients [1, 5]: 2 | Fatigue (TEAE), n patients [1, 5]: 5 | Hyperglycaemia (TEAE), n patients [1, 5]: 0 | Lung infection/ pneumonia (TEAE), n patients [1, 5]: 0 | Nausea (TEAE), n patients [1, 5]: 6 | Pyrexia (TEAE), n patients [1, 5]: 0 | Rash (TEAE), n patients [1, 5]: 3 | Stomatitis (TEAE), n patients [1, 5]: 3 | Vomiting (TEAE), n patients [1, 5]: 4 | AST increased (TEAE), n patients [1, 6]: 1 | Abdominal pain (TEAE), n patients [1, 6]: 1 | Back pain (TEAE), n patients [1, 6]: 0 | Blood creatinine increased (TEAE), n patients [1, 6]: 0 | Constipation (TEAE), n patients [1, 6]: 1 | Cough (TEAE), n patients [1, 6]: 1 | Decreased appetite (TEAE), n patients [1, 6]: 2 | Dehydration (TEAE), n patients [1, 6]: 0 | Diarrhoea (TEAE), n patients [1, 6]: 4 | Dry mouth (TEAE), n patients [1, 6]: 1 | Dysgeusia (TEAE), n patients [1, 6]: 1 | Dyspnea (TEAE), n patients [1, 6]: 0 | Edema (TEAE), n patients [1, 6]: 1 | Fatigue (TEAE), n patients [1, 6]: 3 | Hyperglycaemia (TEAE), n patients [1, 6]: 2 | Lung infection/ pneumonia (TEAE), n patients [1, 6]: 0 | Nausea (TEAE), n patients [1, 6]: 1 | Pyrexia (TEAE), n patients [1, 6]: 0 | Rash (TEAE), n patients [1, 6]: 4 | Stomatitis (TEAE), n patients [1, 6]: 1 | Vomiting (TEAE), n patients [1, 6]: 1 | Grade 3 DLT ([1]; Japanese study, 240-mg cohort): lung infections and hyperglycaemia | MTD ([1]; Japanese study, Asian patients): 240 mg | Hyperglycaemia (on-target effect) (glucose): observed as early as 4 h after dosing | median half-life ([2]; 240-mg dose (MTD)): 12 h | Difference in AUC and Cmax between the two populations ([2]; MTD of 240 mg, Caucasian vs Asian): no significant differences | median time to peak concentration (Tmax) ([2]; across dose groups): 2 to 4 h | Drug accumulation ([2]; predose concentrations days 15 and 21 of cycle 1 and day 1 of cycle 2): no remarkable drug accumulation | Involvement of CYP2C8, CYP3A4, and CYP3A5 in metabolism [3]: involved in the metabolism | Response by RECIST 1.1 (advanced solid tumours): no PR or CR | Akt phosphorylation in platelet-rich plasma (Akt phosphorylation): inhibited compared with that at baseline
